{"source": "patent US9708268B2", "about": "“ROR modulators and their uses” (INNOV17 LLC, priority 2012, dated 2017)", "key": {"IL-17A [1]": {"tested_on": "IL-17A", "experiment": "TH17 cytokine inhibition as measured by ELISA (IL-17A)", "format": "cell-based", "conditions": "120 h; human CD4+ T cells differentiated to TH17 over 5 days, supernatant ELISA, vs DMSO", "method": "(§1) Peripheral blood mononuclear cells (PBMCs) were sourced from freshly prepared leukocyte enriched plasma (buffy coat) from healthy volunteers from which PBMCs were isolated by density gradient centrifugation using Ficoll-Paque™ PLUS (GE Healthcare). Naïve CD4+ T cells were isolated using the Naïve CD4+ T cell Isolation Kit II (Miltenyi Biotec) as per manufacturer's instructions. CD4+ T cells were plated at 5×10^4 cells/well in 96 well plates pre-coated with immobilized human (h)-αCD3 antibody (eBioscience) then differentiated to TH17 cells using h-αCD28, h-αIFN-γ, h-αIL-4, h-IL-6, h-IL-23, […], h-TGF-β1 (eBioscience) and maintained in a cell culture incubator at 37° C. with 5% CO2 in TexMACS Medium (Miltenyi Biotec) supplemented with 1% Penicillin/Streptomycin (Lonza) over 5 days.\n(§2) Human CD4+ T cells were differentiated to TH17 cells as described in the presence or absence of various concentrations of compounds in a final concentration of 0.1% DMSO in TexMACS medium. Supernatants were collected and stored at −20° C. until they were to be assayed for IL-17A, IL-17F, IL-17AF, IL-21 and/or IL-22 levels as determined by Ready-Set-Go ELISA kits (eBioscience) as per manufacturer's instructions. Endpoint absorbance was read at 450 nm and 570 nm according to manufacturer's instructions (eBioscience) using a microplate reader (Perkin Elmer). The percentage of cytokine inhibition was calculated with reference to DMSO treated cells and the IC50s were determined by GraphPad Prism software and presented in the table below."}, "[2]": {"experiment": "TH17 cell viability (Prestoblue)", "format": "cell-based", "parameters": "concentration or dose not given beside the values", "conditions": "human; percentage of DMSO treated cells; read-out: % viability of compound treated TH17 cells", "method": "as §1\nCells were assayed for viability in the presence or absence of compound using Prestoblue® Cell Viability Reagent (Life Technologies) as per manufacturer's instructions after 30 minutes incubation of TH17 cells with reagent. Absorbance was measured at 570 nm and 600 nm using a microplate reader (Perkin Elmer) and data were analyzed as per manufacturer's instructions. Cell viability was expressed as a percentage of DMSO treated cells."}, "IL-17AF": {"tested_on": "IL-17AF", "experiment": "TH17 cytokine inhibition as measured by ELISA (IL-17AF)", "format": "cell-based", "conditions": "120 h; human CD4+ T cells differentiated to TH17 over 5 days, supernatant ELISA, vs DMSO", "method": "as §1, §2"}, "human RORγ LBD": {"target": "human RORγ LBD (Homo sapiens (Human), UniProt P51449)", "sequence (P51449 269-508)": "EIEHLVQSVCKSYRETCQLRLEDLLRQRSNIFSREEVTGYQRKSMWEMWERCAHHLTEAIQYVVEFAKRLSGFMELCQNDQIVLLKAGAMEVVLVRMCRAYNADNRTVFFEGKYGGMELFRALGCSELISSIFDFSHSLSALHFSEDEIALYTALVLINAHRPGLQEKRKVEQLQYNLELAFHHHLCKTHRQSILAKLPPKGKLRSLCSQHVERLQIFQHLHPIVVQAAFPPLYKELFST", "experiment": "RORγ LBD binding (Human RORγ Assay System, INDIGO Biosciences)", "method": "Compound binding to the human RORγ LBD was assessed using the Human RORγ Assay System (INDIGO Biosciences Inc.) as per manufacturer's instructions."}, "IL-22 [3]": {"tested_on": "IL-22", "experiment": "Real-time qRT-PCR gene expression in TH17 cells (IL-22)", "format": "cell-based, human", "parameters": "key: A: No change in gene expression observed relative to DMSO treated TH17 cells; B: Decreased gene expression observed relative to DMSO treated TH17 cells; C: Increased gene expression observed relative to DMSO treated TH17 cells", "conditions": "mRNA", "method": "as §1\n(§3) RNA was isolated from TH17 cells and cDNA was synthesized using the Verso cDNA kit (Thermo Scientific) as per manufacturer's instructions. IL-17A, IL-17F, IL-21, IL-22, G-CSF, IL-23R and FOXP3 gene expression were determined for compound treated and untreated TH17 cell samples using Solaris qPCR Gene expression assays (Thermo Scientific) with an iCycler iQ Real-Time PCR Detection System (Bio-Rad). Individual gene expression was normalized to a panel of six reference genes (ACTB, TBP, HPRT1, PGK1, TFRC and PPIA) (Thermo Scientific) and analyzed by REST 2009 (Qiagen) in accordance to MIQE guidelines (Bustin, et al. (2009) Clin. Chem. 55, 611-622), which is hereby incorporated by reference in its entirety). The effects of compounds on TH17 cytokine mRNA levels are presented as fold change in gene expression of compound treated TH17 cells relative to DMSO treated cells in the table below."}, "TH17 cells": {"tested_on": "TH17 cells", "experiment": "TH17 cellular proliferation (Prestoblue)", "format": "cell-based, human", "conditions": "3 μM compound, after 5 day TH17 differentiation, relative to DMSO treated cells", "method": "as §1\nCellular proliferation was assessed in the presence or absence of 3 μM compound using Prestoblue® Cell Viability Reagent (Life Technologies) as per manufacturer's instructions using absorbance as the output measured by a microplate reader (Perkin Elmer) after 30 minutes of incubation of cells and reagent. A standard curve developed by plotting varying cell numbers versus absorbance was used to assess differences in cellular proliferation between compound treated or untreated cells after the 5 day TH17 differentiation period."}, "IL-17F [4]": {"tested_on": "IL-17F", "experiment": "TH17 cytokine inhibition as measured by ELISA (IL-17F)", "format": "cell-based", "conditions": "120 h; human CD4+ T cells differentiated to TH17 over 5 days, supernatant ELISA, vs DMSO", "method": "as §1, §2"}, "FOXP3": {"tested_on": "FOXP3", "experiment": "Real-time qRT-PCR gene expression in TH17 cells (FOXP3)", "format": "cell-based, human", "parameters": "key: A: No change in gene expression observed relative to DMSO treated TH17 cells; B: Decreased gene expression observed relative to DMSO treated TH17 cells; C: Increased gene expression observed relative to DMSO treated TH17 cells", "conditions": "mRNA", "method": "as §1, §3"}, "IL-17A [5]": {"tested_on": "IL-17A", "experiment": "Real-time qRT-PCR gene expression in TH17 cells (IL-17A)", "format": "cell-based, human", "parameters": "key: A: No change in gene expression observed relative to DMSO treated TH17 cells; B: Decreased gene expression observed relative to DMSO treated TH17 cells; C: Increased gene expression observed relative to DMSO treated TH17 cells", "conditions": "mRNA", "method": "as §1, §3"}, "IL-21": {"tested_on": "IL-21", "experiment": "Real-time qRT-PCR gene expression in TH17 cells (IL-21)", "format": "cell-based, human", "parameters": "key: A: No change in gene expression observed relative to DMSO treated TH17 cells; B: Decreased gene expression observed relative to DMSO treated TH17 cells; C: Increased gene expression observed relative to DMSO treated TH17 cells", "conditions": "mRNA", "method": "as §1, §3"}, "IL-23R": {"tested_on": "IL-23R", "experiment": "Real-time qRT-PCR gene expression in TH17 cells (IL-23R)", "format": "cell-based, human", "parameters": "key: A: No change in gene expression observed relative to DMSO treated TH17 cells; B: Decreased gene expression observed relative to DMSO treated TH17 cells; C: Increased gene expression observed relative to DMSO treated TH17 cells", "conditions": "mRNA", "method": "as §1, §3"}, "IL-22 [6]": {"tested_on": "IL-22", "experiment": "TH17 cytokine inhibition as measured by ELISA (IL-22)", "format": "cell-based", "conditions": "120 h; human CD4+ T cells differentiated to TH17 over 5 days, supernatant ELISA, vs DMSO", "method": "as §1, §2"}, "IL-17F [7]": {"tested_on": "IL-17F", "experiment": "Real-time qRT-PCR gene expression in TH17 cells (IL-17F)", "format": "cell-based, human", "parameters": "key: A: No change in gene expression observed relative to DMSO treated TH17 cells; B: Decreased gene expression observed relative to DMSO treated TH17 cells; C: Increased gene expression observed relative to DMSO treated TH17 cells", "conditions": "mRNA", "method": "as §1, §3"}}}
{"smiles": "CNC(=O)c1ccc2c(c1)CCCN2Cc1ccc(C(O)(C(F)(F)F)C(F)(F)F)cc1", "note": "[Example 3, 1-(4-(1,1,1,3,3,3-hexafluoro-2-hydroxypropan-2-yl)benzyl)-N-methyl-1,2,3,4-tetrahydroquinoline-6-carboxamide]", "values": [{"measurement": "IC50", "setting": "IL-17A [1]", "result": "< 10", "unit": "µM"}, {"measurement": "viability", "setting": "[2]", "result": "> 80", "unit": "%"}, {"measurement": "IC50", "setting": "IL-17AF", "result": "< 10", "unit": "µM"}, {"measurement": "IC50", "setting": "human RORγ LBD", "result": "< 10", "unit": "µM"}, {"measurement": "Change in gene expression of compound treated TH17 cells relative to DMSO treated cells, IL-22", "setting": "IL-22 [3]", "result": "A"}, {"measurement": "% change in TH17 cell number", "setting": "TH17 cells", "result": "B (≦50% decrease in cell proliferation relative to DMSO treated TH17 cells)"}, {"measurement": "IC50", "setting": "IL-17F [4]", "result": "< 10", "unit": "µM"}, {"measurement": "Change in gene expression of compound treated TH17 cells relative to DMSO treated cells, FOXP3", "setting": "FOXP3", "result": "A"}, {"measurement": "Change in gene expression of compound treated TH17 cells relative to DMSO treated cells, IL-17A", "setting": "IL-17A [5]", "result": "A"}, {"measurement": "Change in gene expression of compound treated TH17 cells relative to DMSO treated cells, IL-21", "setting": "IL-21", "result": "A"}, {"measurement": "Change in gene expression of compound treated TH17 cells relative to DMSO treated cells, IL-23R", "setting": "IL-23R", "result": "A"}, {"measurement": "IC50", "setting": "IL-22 [6]", "result": "< 10", "unit": "µM"}, {"measurement": "Change in gene expression of compound treated TH17 cells relative to DMSO treated cells, IL-17F", "setting": "IL-17F [7]", "result": "A"}]}
{"smiles": "CN(C)C(=O)c1ccc2c(c1)CCCN2Cc1ccc(C(O)(C(F)(F)F)C(F)(F)F)cc1", "note": "[Example 4, 1-(4-(1,1,1,3,3,3-hexafluoro-2-hydroxypropan-2-yl)benzyl)-N,N-dimethyl-1,2,3,4-tetrahydroquinoline-6-carboxamide]", "values": [{"measurement": "IC50", "setting": "IL-17A [1]", "result": "< 10", "unit": "µM"}, {"measurement": "viability", "setting": "[2]", "result": "> 80", "unit": "%"}, {"measurement": "IC50", "setting": "IL-17AF", "result": "< 10", "unit": "µM"}, {"measurement": "IC50", "setting": "human RORγ LBD", "result": "< 10", "unit": "µM"}, {"measurement": "Change in gene expression of compound treated TH17 cells relative to DMSO treated cells, IL-22", "setting": "IL-22 [3]", "result": "A"}, {"measurement": "% change in TH17 cell number", "setting": "TH17 cells", "result": "B (≦50% decrease in cell proliferation relative to DMSO treated TH17 cells)"}, {"measurement": "IC50", "setting": "IL-17F [4]", "result": "< 10", "unit": "µM"}, {"measurement": "Change in gene expression of compound treated TH17 cells relative to DMSO treated cells, FOXP3", "setting": "FOXP3", "result": "A"}, {"measurement": "Change in gene expression of compound treated TH17 cells relative to DMSO treated cells, IL-17A", "setting": "IL-17A [5]", "result": "A"}, {"measurement": "Change in gene expression of compound treated TH17 cells relative to DMSO treated cells, IL-21", "setting": "IL-21", "result": "A"}, {"measurement": "Change in gene expression of compound treated TH17 cells relative to DMSO treated cells, IL-23R", "setting": "IL-23R", "result": "A"}, {"measurement": "IC50", "setting": "IL-22 [6]", "result": "< 10", "unit": "µM"}, {"measurement": "Change in gene expression of compound treated TH17 cells relative to DMSO treated cells, IL-17F", "setting": "IL-17F [7]", "result": "A"}]}
